According to the supplement of paper PMC10307832:

How the values were obtained:
Assay in all cases: relative viability (nuclei count vs DMSO), 5 days (fraction); higher = more cells survive
Cediranib + Decitabine = compound: COc1cc2c(Oc3ccc4[nH]c(C)cc4c3F)ncnc2cc1OCCCN1CCCC1 [Cediranib] + Nc1ncn([C@H]2C[C@H](O)[C@@H](CO)O2)c(=O)n1 [Decitabine] (partner 2 µM)
Procedure, shortened: (§1)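 Medians of duplicate plates are given as relative viability. That measure is the nuclei count in treated wells divided by the count in vehicle wells. Counts were taken on 4× images of lung cancer cell lines in 1536-well plates, 5 days after pin-tool dosing the day after seeding with one drug alone or a fixed anchor-drug dose plus five library-drug doses (not always all listed) in √10 steps.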

[1] = compound: O=C(C[C@H]1NCCC[C@@H]1O)Cn1cnc2cc(Br)c(Cl)cc2c1=O (racemic) [Halofuginone] + CC(C)C[C@H](NC(=O)[C@H](Cc1ccccc1)NC(=O)c1cnccn1)B(O)O [Bortezomib] (partner 0.002 µM)
Procedure, shortened: as §1

Decitabine + Tozasertib = compound: Nc1ncn([C@H]2C[C@H](O)[C@@H](CO)O2)c(=O)n1 [Decitabine] + Cc1cc(Nc2cc(N3CCN(C)CC3)nc(Sc3ccc(NC(=O)C4CC4)cc3)n2)n[nH]1 [Tozasertib] (partner 0.1 µM)
Procedure, shortened: as §1

Cediranib + Pemetrexed = compound: COc1cc2c(Oc3ccc4[nH]c(C)cc4c3F)ncnc2cc1OCCCN1CCCC1 [Cediranib] + Nc1nc2[nH]cc(CCc3ccc(C(=O)N[C@@H](CCC(=O)O)C(=O)O)cc3)c2c(=O)[nH]1 [Pemetrexed] (partner 0.2 µM)
Procedure, shortened: as §1

Cell Line	relative viability (Cediranib + Decitabine; first compound 0.04 µM)	relative viability (Cediranib + Decitabine; first compound 0.1265 µM)	relative viability (Cediranib + Decitabine; first compound 0.4 µM)	relative viability (Cediranib + Decitabine; first compound 1.265 µM)	relative viability (Cediranib + Decitabine; first compound 4 µM)	relative viability ([1]; first compound 0.001 µM)	relative viability ([1]; first compound 0.003162 µM)	relative viability ([1]; first compound 0.01 µM)	relative viability ([1]; first compound 0.03162 µM)	relative viability ([1]; first compound 0.1 µM)	relative viability (Decitabine + Tozasertib; first compound 0.04 µM)	relative viability (Decitabine + Tozasertib; first compound 0.1265 µM)	relative viability (Decitabine + Tozasertib; first compound 0.4 µM)	relative viability (Decitabine + Tozasertib; first compound 1.265 µM)	relative viability (Decitabine + Tozasertib; first compound 4 µM)	relative viability (Cediranib + Pemetrexed; first compound 0.04 µM)	relative viability (Cediranib + Pemetrexed; first compound 0.1265 µM)	relative viability (Cediranib + Pemetrexed; first compound 0.4 µM)	relative viability (Cediranib + Pemetrexed; first compound 1.265 µM)	relative viability (Cediranib + Pemetrexed; first compound 4 µM)
A549	0.449	0.115	0.272	0.258	0.319	–	–	–	–	–	–	–	–	–	–	–	–	–	–	–
ABC-1	0.866	1.11	1.19	1.05	1.04	0.255	0.328	0.24	0.367	0.279	0.211	0.185	0.174	0.195	0.21	–	–	–	–	–
CAL-12T	–	–	–	–	–	1.13	1.04	–	1.37	0.894	0.292	0.268	–	0.21	0.219	1.03	1.29	1.14	1.13	1.03
Calu-6	–	–	–	–	–	1.04	1.17	0.974	0.452	0.137	–	–	–	–	–	–	–	–	–	–
EBC-1	–	–	–	–	–	0.507	0.616	0.458	0.325	0.135	–	–	–	–	–	–	–	–	–	–
IA-LM	–	–	–	–	–	0.894	0.741	0.664	0.533	0.0776	–	–	–	–	–	–	–	–	–	–
LK-2	0.287	0.231	0.396	0.269	0.273	–	–	–	–	–	0.168	0.166	0.182	0.155	0.19	0.324	0.202	0.247	0.177	0.209
NCI-H358	0.214	0.256	0.215	0.186	0.213	–	–	–	–	–	0.121	0.0951	0.0825	0.1	0.0948	0.176	0.198	0.168	0.17	0.187
NCI-H522	0.702	0.746	0.76	0.661	0.656	–	–	–	–	–	0.538	0.624	0.376	0.446	0.37	1.16	0.713	1.14	0.863	0.995
NCI-H727	0.818	0.692	0.793	0.894	0.909	0.981	0.798	0.927	0.856	0.468	0.587	0.445	0.518	0.754	0.747	–	–	–	–	–
NCI-H1299	–	–	–	–	–	1.08	1.02	1	0.986	0.851	–	–	–	–	–	–	–	–	–	–
NCI-H1395	0.717	0.769	0.675	0.712	0.77	–	–	–	–	–	0.549	0.517	0.487	0.445	0.453	0.915	0.985	0.825	0.76	0.801
NCI-H1563	–	–	–	–	–	0.708	0.885	0.686	0.585	0.515	–	–	–	–	–	0.885	0.879	0.843	0.675	0.872
NCI-H1623	–	–	–	–	–	–	–	–	–	–	0.401	0.422	0.367	0.373	0.305	–	–	–	–	–
NCI-H1648	0.44	0.501	0.448	0.48	0.481	–	–	–	–	–	0.519	0.402	0.321	0.172	0.184	0.563	0.551	0.617	0.634	0.372
NCI-H1703	–	–	–	–	–	0.363	0.333	0.305	0.282	0.224	–	–	–	–	–	–	–	–	–	–
NCI-H1792	–	0.503	0.48	0.501	0.715	0.965	1.01	1.01	0.942	0.866	–	–	–	–	–	–	1.13	0.567	0.742	0.796
NCI-H1793	0.51	0.477	0.478	0.478	0.506	–	–	–	–	–	0.288	0.335	0.247	0.226	0.207	0.822	0.991	0.693	0.568	1.14
NCI-H1944	0.443	0.396	0.422	0.443	0.45	–	–	–	–	–	0.234	0.268	0.22	0.201	0.186	0.709	0.473	0.562	0.593	0.713
NCI-H2170	0.522	–	0.473	0.481	0.515	–	–	–	–	–	0.447	0.472	0.347	0.298	0.217	0.295	–	0.233	0.264	0.258
NCI-H2228	–	–	–	–	–	1.06	0.856	0.988	0.426	0.151	0.176	0.207	0.134	0.114	0.104	0.351	0.346	0.359	0.325	0.325
NCI-H2342	0.83	0.827	0.732	0.74	0.812	–	–	–	–	–	0.495	0.502	0.552	0.385	0.362	0.764	0.808	0.805	0.681	0.797
SK-MES-1	0.427	0.394	0.436	0.384	0.387	–	–	–	–	–	0.698	0.608	0.332	0.238	0.255	1.02	1.01	0.901	0.964	1.03
SW 900	0.45	0.421	0.425	0.444	0.53	–	–	–	–	–	0.288	0.297	0.222	0.182	0.15	0.52	0.509	0.463	0.46	0.537
